Organism: Rattus norvegicus
Assay: Open TG-GATES - Regimen: Daily Repeat
Type: toxicity, organism-based, Sprague-Dawley
Parameters: regimen Daily Repeat, gender Male, age 6 weeks
Details: in vivo, po, 600 mg/kg, route gavage, dose level High; for APTT / Bas / Eos / Fbg / Hb / Ht / Lym / MCH / MCHC / MCV / Mono / Neu / PT / Plat / RBC / Ret / WBC: tissue Blood; for KIDNEY_L / KIDNEY_R / KIDNEY_TOTAL: tissue Kidney; for LIVER: tissue Liver; for A/G / ALP / ALT / AST / BUN / CRE / Ca / Cl / DBIL / GLC / IP / K / LDH / Na / PL / RALB / TBIL / TC / TG / TP / gamma-GTP: tissue Plasma

Structure (SMILES): C[C@](N)(Cc1ccc(O)c(O)c1)C(=O)O [METHYLDOPA]
- TERMINAL_BW (72 h, time 3 day): 188.1 g
- APTT (72 h, time 3 day): 17.3 s
- Bas (72 h, time 3 day): 0%
- Eos (72 h, time 3 day): 1.2%
- Fbg (72 h, time 3 day): 240 mg/dL
- Hb (72 h, time 3 day): 14.2 g/dL
- Ht (72 h, time 3 day): 41.8%
- Lym (72 h, time 3 day): 83.2%
- MCH (72 h, time 3 day): 21.4 pg
- MCHC (72 h, time 3 day): 34%
- MCV (72 h, time 3 day): 62.9 fL
- Mono (72 h, time 3 day): 2.4%
- Neu (72 h, time 3 day): 12.6%
- PT (72 h, time 3 day): 12.8 s
- Plat (72 h, time 3 day): 108 x10_4/uL
- RBC (72 h, time 3 day): 665.2 x10_4/ul
- Ret (72 h, time 3 day): 4.2%
- WBC (72 h, time 3 day): 54.3 x10_2/uL
- KIDNEY_L (72 h, time 3 day): 0.9 g
- KIDNEY_R (72 h, time 3 day): 0.9 g
- KIDNEY_TOTAL (72 h, time 3 day): 1.7 g
- LIVER (72 h, time 3 day): 8.1 g
- A/G (72 h, time 3 day): 0.8
- ALP (72 h, time 3 day): 1746 IU/L
- ALT (72 h, time 3 day): 54.4 IU/L
- AST (72 h, time 3 day): 74 IU/L
- BUN (72 h, time 3 day): 18.2 mg/dL
- CRE (72 h, time 3 day): 0.2 mg/dL
- Ca (72 h, time 3 day): 10.9 mg/dL
- Cl (72 h, time 3 day): 106.6 meq/L
- DBIL (72 h, time 3 day): 0.01 mg/dL
- GLC (72 h, time 3 day): 167.2 mg/dL
- IP (72 h, time 3 day): 7.8 mg/dL
- K (72 h, time 3 day): 4.1 meq/L
- LDH (72 h, time 3 day): 72.2 IU/L
- Na (72 h, time 3 day): 146.2 meq/L
- PL (72 h, time 3 day): 153 mg/dL
- RALB (72 h, time 3 day): 2.6 g/dL
- TBIL (72 h, time 3 day): 0.054 mg/dL
- TC (72 h, time 3 day): 95.6 mg/dL
- TG (72 h, time 3 day): 37.2 mg/dL
- TP (72 h, time 3 day): 5.5 g/dL
- gamma-GTP (72 h, time 3 day): 1 IU/L
- TERMINAL_BW ([…], time 7 day): 207.4 g
- TERMINAL_BW ([…], time 14 day): 241.7 g
- TERMINAL_BW ([…], time 28 day): 321.4 g
- APTT ([…], time 7 day): 16.1 s
- Bas ([…], time 7 day): 0%
- Eos ([…], time 7 day): 1.2%
- Fbg ([…], time 7 day): 259 mg/dL
- Hb ([…], time 7 day): 14.4 g/dL
- Ht ([…], time 7 day): 42.1%
- Lym ([…], time 7 day): 81.6%
- MCH ([…], time 7 day): 20.5 pg
- MCHC ([…], time 7 day): 34.2%
- MCV ([…], time 7 day): 60 fL
- Mono ([…], time 7 day): 2.8%
- Neu ([…], time 7 day): 14.4%
- PT ([…], time 7 day): 12.2 s
- Plat ([…], time 7 day): 106.1 x10_4/uL
- RBC ([…], time 7 day): 702 x10_4/ul
- Ret ([…], time 7 day): 3.6%
- WBC ([…], time 7 day): 67.6 x10_2/uL
- APTT ([…], time 14 day): 16.5 s
- Bas ([…], time 14 day): 0%
- Eos ([…], time 14 day): 0.8%
- Fbg ([…], time 14 day): 277 mg/dL
- Hb ([…], time 14 day): 14.2 g/dL
- Ht ([…], time 14 day): 40.9%
- Lym ([…], time 14 day): 83.8%
- MCH ([…], time 14 day): 21.1 pg
- MCHC ([…], time 14 day): 34.7%
- MCV ([…], time 14 day): 60.8 fL
- Mono ([…], time 14 day): 1.8%
- Neu ([…], time 14 day): 13%
- PT ([…], time 14 day): 14.2 s
- Plat ([…], time 14 day): 111.5 x10_4/uL
- RBC ([…], time 14 day): 673.2 x10_4/ul
- Ret ([…], time 14 day): 4.6%
- WBC ([…], time 14 day): 86.9 x10_2/uL
- APTT ([…], time 28 day): 16.8 s
- Bas ([…], time 28 day): 0%
- Eos ([…], time 28 day): 1.2%
- Fbg ([…], time 28 day): 300.8 mg/dL
- Hb ([…], time 28 day): 14.9 g/dL
- Ht ([…], time 28 day): 43.2%
- Lym ([…], time 28 day): 75.4%
- MCH ([…], time 28 day): 19.7 pg
- MCHC ([…], time 28 day): 34.5%
- MCV ([…], time 28 day): 57.2 fL
- Mono ([…], time 28 day): 2%
- Neu ([…], time 28 day): 21.2%
- PT ([…], time 28 day): 14.1 s
- Plat ([…], time 28 day): 101.5 x10_4/uL
- RBC ([…], time 28 day): 756.4 x10_4/ul
- Ret ([…], time 28 day): 2.4%
- WBC ([…], time 28 day): 68.4 x10_2/uL
- KIDNEY_L ([…], time 7 day): 0.9 g
- KIDNEY_R ([…], time 7 day): 0.9 g
- KIDNEY_TOTAL ([…], time 7 day): 1.8 g
- KIDNEY_L ([…], time 14 day): 1 g
- KIDNEY_R ([…], time 14 day): 1 g
- KIDNEY_TOTAL ([…], time 14 day): 2 g
- KIDNEY_L ([…], time 28 day): 1.2 g
- KIDNEY_R ([…], time 28 day): 1.2 g
- KIDNEY_TOTAL ([…], time 28 day): 2.5 g
- LIVER ([…], time 7 day): 8.1 g
- LIVER ([…], time 14 day): 9.1 g
- LIVER ([…], time 28 day): 11.7 g
- A/G ([…], time 7 day): 0.9
- ALP ([…], time 7 day): 1646.8 IU/L
- ALT ([…], time 7 day): 51 IU/L
- AST ([…], time 7 day): 88.4 IU/L
- BUN ([…], time 7 day): 14.6 mg/dL
- CRE ([…], time 7 day): 0.2 mg/dL
- Ca ([…], time 7 day): 10.9 mg/dL
- Cl ([…], time 7 day): 107.6 meq/L
- DBIL ([…], time 7 day): 0.008 mg/dL
- GLC ([…], time 7 day): 179.2 mg/dL
- IP ([…], time 7 day): 7.8 mg/dL
- K ([…], time 7 day): 4.4 meq/L
- LDH ([…], time 7 day): 66.4 IU/L
- Na ([…], time 7 day): 146 meq/L
- PL ([…], time 7 day): 133.2 mg/dL
- RALB ([…], time 7 day): 2.7 g/dL
- TBIL ([…], time 7 day): 0.064 mg/dL
- TC ([…], time 7 day): 87.4 mg/dL
- TG ([…], time 7 day): 26 mg/dL
- TP ([…], time 7 day): 5.7 g/dL
- gamma-GTP ([…], time 7 day): 1.2 IU/L
- A/G ([…], time 14 day): 0.8
- ALP ([…], time 14 day): 1330.4 IU/L
- ALT ([…], time 14 day): 43.8 IU/L
- AST ([…], time 14 day): 65 IU/L
- BUN ([…], time 14 day): 12.2 mg/dL
- CRE ([…], time 14 day): 0.2 mg/dL
- Ca ([…], time 14 day): 11.2 mg/dL
- Cl ([…], time 14 day): 105.4 meq/L
- DBIL ([…], time 14 day): 0.002 mg/dL
- GLC ([…], time 14 day): 179.6 mg/dL
- IP ([…], time 14 day): 7.9 mg/dL
- K ([…], time 14 day): 4.7 meq/L
- LDH ([…], time 14 day): 53.4 IU/L
- Na ([…], time 14 day): 143 meq/L
- PL ([…], time 14 day): 139.4 mg/dL
- RALB ([…], time 14 day): 2.7 g/dL
- TBIL ([…], time 14 day): 0.054 mg/dL
- TC ([…], time 14 day): 91 mg/dL
- TG ([…], time 14 day): 26.4 mg/dL
- TP ([…], time 14 day): 5.8 g/dL
- gamma-GTP ([…], time 14 day): 1 IU/L
- A/G ([…], time 28 day): 0.8
- ALP ([…], time 28 day): 1178.8 IU/L
- ALT ([…], time 28 day): 40 IU/L
- AST ([…], time 28 day): 56.8 IU/L
- BUN ([…], time 28 day): 13 mg/dL
- CRE ([…], time 28 day): 0.2 mg/dL
- Ca ([…], time 28 day): 11 mg/dL
- Cl ([…], time 28 day): 104.4 meq/L
- DBIL ([…], time 28 day): 0.016 mg/dL
- GLC ([…], time 28 day): 177.2 mg/dL
- IP ([…], time 28 day): 7.4 mg/dL
- K ([…], time 28 day): 4.3 meq/L
- LDH ([…], time 28 day): 39.2 IU/L
- Na ([…], time 28 day): 144.8 meq/L
- PL ([…], time 28 day): 140.6 mg/dL
- RALB ([…], time 28 day): 2.7 g/dL
- TBIL ([…], time 28 day): 0.062 mg/dL
- TC ([…], time 28 day): 84.4 mg/dL
- TG ([…], time 28 day): 37.6 mg/dL
- TP ([…], time 28 day): 6 g/dL
- gamma-GTP ([…], time 28 day): 1 IU/L
